Columns and labels:
[1] = test system: hypercholesterolemia induced wistar rat's models; assay: Prophylactic study: lipid profile (TC, TG, HDL-C, LDL-C, VLDL); type: in vivo, Wistar strain albino rats; details: for HDL-C / LDL-C / TC / TG / VLDL: HFD+normal diet
Procedure: (§1) Wistar strain albino rats of body weight ranging from 190-225 g were selected for the present study. The temperature and humidity were kept at optimum (22+2° C.; 40-70% and animals were exposed to natural chronological day night cycles. The experiments were carried out in conformity with the Institutional Animal Ethics Committee.
(§2) The 6 groups were as follows: • 1. Normal Control • 2.
1.5-2 ml blood sample was taken from retino-orbital chamber in vials for biochemical estimations at every 15 days. Investigations performed included detailed Total Cholesterol—TC (mg/dl), Triglyceride—TG (mg/dl), High Density Lipoprotein—HDL-C (mg/dl), Low Density Lipoprotein—LDL-C (mg/dl), Very Low-Density Lipoprotein—VLDL (mg/dl), WBC (10^3/u1), RBC (10^6/u1), Hb (g/dl), PCV (%), Reticulocyte (%), Platelet count 10^5/mm^3, Clotting time (Sec), Neutrophils, Lymphocyte, Monocyte and Eosinophil. The estimations were done with Ecoline kits from Erba Mannheim, ERBA diagnostics Mannheml, Germany using Semi Autoanalyzer RX50 of MicroLabs Instruments and COUNCELL21 of Tulip Diagnostics Pvt. Ltd. Lipid peroxidation (Plasma & Liver), HMG Co-Reductase, Creatine phosphokinase (CPK), Lactate dehydrogenase (LDH), SGOT and SGPT were estimated at the end of both the studies using the kits.

[2] = Therapeutic study (60 days treatment after 90 days HFD): body weight; type: in vivo, Wistar strain albino rats; details: in g
Procedure: as §1, §2

`CC(C)c1c(C(=O)Nc2ccccc2)c(-c2ccccc2)c(-c2ccc(F)cc2)n1CC[C@@H](O)C[C@@H](O)CC(=O)O` [Statin, Atorvastatin] gave an HDL-C ([1]; day 0) of 34.60 ± 1.50 mg/dL, an LDL-C ([1]; day 0) of 47.10 ± 1.25 mg/dL and a TC ([1]; day 0) of 81.95 ± 1.35 mg/dL. It also gave a TG ([1]; day 0) of 16.75 ± 1.10 mg/dL, a VLDL ([1]; day 0) of 2.48 ± 0.15 mg/dL and an HDL-C ([1]; day 15) of 31.56 ± 1.26 mg/dL. For the same compound, the LDL-C ([1]; day 15) was 48.68 ± 0.29 mg/dL, the TC ([1]; day 15) was 85.24 ± 1.55 mg/dL and the VLDL ([1]; day 15) was 2.86 ± 0.35 mg/dL. It also gave an HDL-C ([1]; day 30) of 35.66 ± 2.08 mg/dL, an LDL-C ([1]; day 30) of 56.60 ± 4.50 mg/dL and a TC ([1]; day 30) of 85.66 ± 4.04 mg/dL. For the same compound, the TG ([1]; day 30) was 22.66 ± 3.10 mg/dL, the VLDL ([1]; day 30) was 2.96 ± 0.02 mg/dL and the HDL-C ([1]; day 45) was 38.33 ± 5.85 mg/dL. The LDL-C ([1]; day 45) was 57 ± 4.0 mg/dL, the TC ([1]; day 45) was 87.5 ± 5.04 mg/dL and the TG ([1]; day 45) was 24.86 ± 4.20 mg/dL. For the same compound, the VLDL ([1]; day 45) was 3.03 ± 0.19 mg/dL, the HDL-C ([1]; day 60) was 39.60 ± 5.57 mg/dL and the LDL-C ([1]; day 60) was 57.23 ± 4.43 mg/dL. The TC ([1]; day 60) was 88.5 ± 4.44 mg/dL, the TG ([1]; day 60) was 24.4 ± 4.61 mg/dL and the VLDL ([1]; day 60) was 3.0 ± 0.13 mg/dL. It also gave an HDL-C ([1]; day 75) of 33.53 ± 1.92 mg/dL, an LDL-C ([1]; day 75) of 55.27 ± 4.39 mg/dL and a TC ([1]; day 75) of 90.95 ± 2.05 mg/dL. For the same compound, the TG ([1]; day 75) was 22.67 ± 4.16 mg/dL, the VLDL ([1]; day 75) was 2.98 ± 0.84 mg/dL and the HDL-C ([1]; day 90) was 34.26 ± 1.26 mg/dL. For the same compound, the LDL-C ([1]; day 90) was 52.83 ± 1.76 mg/dL, the TC ([1]; day 90) was 90.22 ± 2.10 mg/dL and the TG ([1]; day 90) was 21.93 ± 3.90 mg/dL. The VLDL ([1]; day 90) was 3.12 ± 0.79 mg/dL, the “increase in TC” value ([1]; prophylactic study, after HFD diet treatment) was 10% and the “Average Body Weight” value ([2]; HFD continued, day 0) was 275.33 ± 7.09. The “Average Body Weight” value ([2]; HFD continued, day 15) was 270.67 ± 7.37, the “Average Body Weight” value ([2]; HFD continued, day 30) was 268.33 ± 2.52 and the “Average Body Weight” value ([2]; HFD continued, day 45) was 265.67 ± 6.51. For the same compound, the “Average Body Weight” value ([2]; HFD continued, day 60) was 262.33 ± 7.15, the “Average Body Weight” value ([2]; HFD discontinued, day 0) was 270.33 ± 8.74 and the “Average Body Weight” value ([2]; HFD discontinued, day 30) was 264.33 ± 3.06. The “Average Body Weight” value ([2]; HFD discontinued, day 45) was 263.00 ± 5.57 and the “Average Body Weight” value ([2]; HFD discontinued, day 60) was 259.83 ± 6.27.

— patent US20230270804A1, “ANTI-HYPERCHOLESTEROLEMIA COMPOSITION AND A METHOD OF MANUFACTURING THE SAME” (NBI BIOSCIENCES PRIVATE LIMITED, priority 2020, published 2023)
